Measurements taken from US8993542B2, “Methods of treating viral infections” (priority 2008, dated 2015).

Assays:
HIV-1IIIB [1] = experiment: Resistance selection by serial passage in CEM-SS cells; assay type: cell-based
Experimental: In vitro studies designed to select CMX157 resistant mutants use wild-type HIV-1 as the primary inoculum and TFV as a positive control. These studies are conducted by serial passage of HIV-1IIIB and HIV-1RF in CEM-SS cells using increasing concentrations of TFV or CMX157. Drug levels are increased following detection of viral growth at each passage using procedures known to one skilled in the art. Upon completion of each passage, the reverse transcriptase coding region of the viral genome is sequenced to identify any possible resistance-associated mutations that may have emerged within the virus pool.

HIV-1IIIB [2] = experiment: Two-drug combination antiviral assay in CEM cells (CPE), MacSynergy II; assay type: cell-based; conditions: in combination with CMX157, CEM-SS cells, 95% confidence
[3] = Passage 1, Tenofovir 10 μM (2× IC50)
[4] = Passage 2, Tenofovir 20 μM (4× IC50)
[5] = Passage 3, Tenofovir 30 μM (6× IC50)
[6] = Passage 4, Tenofovir 40 μM (8× IC50)
[7] = Passage 5, Tenofovir 40 μM (8× IC50)
[8] = Passage 6, Tenofovir 40 μM (8× IC50)
[9] = Passage 7, Tenofovir 45 μM (9× IC50)
[10] = Passage 8, Tenofovir 50 μM (10× IC50)
[11] = Passage 9, Tenofovir 55 μM (11× IC50)
[12] = Passage 10, Tenofovir 60 μM (12× IC50)

C[C@H](Cn1cnc2c(N)ncnc21)OCP(=O)(O)O [TFV, (R)-9-(2-phosphonylmethoxypropyl)adenine]
passage by which K65R was selected (HIV-1IIIB [1]): ≤ 8 passage
Comments (virus replication) (HIV-1IIIB [1]; [3]): Low-level virus replication observed
Day of Peak Virus Production (HIV-1IIIB [1]; [3]): Day 6
Peak RT activity (HIV-1IIIB [1]; [3]): (3,525 cpm)
Comments (virus replication) (HIV-1IIIB [1]; [4]): Low-level virus replication observed
Day of Peak Virus Production (HIV-1IIIB [1]; [4]): Day 7
Peak RT activity (HIV-1IIIB [1]; [4]): (2,016 cpm)
Comments (virus replication) (HIV-1IIIB [1]; [5]): Low-level virus replication observed
Day of Peak Virus Production (HIV-1IIIB [1]; [5]): Day 14
Peak RT activity (HIV-1IIIB [1]; [5]): (2,062 cpm)
Comments (virus replication) (HIV-1IIIB [1]; [6]): Low-level virus replication observed
Day of Peak Virus Production (HIV-1IIIB [1]; [6]): Day 6
Peak RT activity (HIV-1IIIB [1]; [6]): (3,109 cpm)
Comments (virus replication) (HIV-1IIIB [1]; [7]): Low-level virus replication observed;
Day of Peak Virus Production (HIV-1IIIB [1]; [7]): Day 14
Peak RT activity (HIV-1IIIB [1]; [7]): (1,788 cpm)
Comments (virus replication) (HIV-1IIIB [1]; [8]): Robust virus replication observed;
Day of Peak Virus Production (HIV-1IIIB [1]; [8]): Day 19
Peak RT activity (HIV-1IIIB [1]; [8]): (23,508)
Comments (virus replication) (HIV-1IIIB [1]; [9]): Robust virus replication observed; minor
Day of Peak Virus Production (HIV-1IIIB [1]; [9]): Day 7
Peak RT activity (HIV-1IIIB [1]; [9]): (24,408 cpm)
Comments (virus replication) (HIV-1IIIB [1]; [10]): Robust virus replication observed; E404D
Day of Peak Virus Production (HIV-1IIIB [1]; [10]): Day 9
Peak RT activity (HIV-1IIIB [1]; [10]): (57,455 cpm)
Comments (virus replication) (HIV-1IIIB [1]; [11]): Robust virus replication observed;
Day of Peak Virus Production (HIV-1IIIB [1]; [11]): Day 11
Peak RT activity (HIV-1IIIB [1]; [11]): (25,458 cpm)
Comments (virus replication) (HIV-1IIIB [1]; [12]): Robust virus replication observed;
Day of Peak Virus Production (HIV-1IIIB [1]; [12]): Day 7
Peak RT activity (HIV-1IIIB [1]; [12]): (31,549 cpm)
Antagonism Volume, Result 1 (HIV-1IIIB [2]): −0.53 nM^2 %, μM^2 % or nMμM %
Antagonism Volume, Result 2 (HIV-1IIIB [2]): 0 nM^2 %, μM^2 % or nMμM %
Antagonism Volume, Result 3 (HIV-1IIIB [2]): 0 nM^2 %, μM^2 % or nMμM %
Mean Antagonism Volume (n = 3) (HIV-1IIIB [2]): −0.18 nM^2 %, μM^2 % or nMμM %
Mean Synergy Volume (n = 3) (HIV-1IIIB [2]): 28.4 nM^2 %, μM^2 % or nMμM %
Synergy Volume, Result 1 (HIV-1IIIB [2]): 17.6 nM^2 %, μM^2 % or nMμM %
Synergy Volume, Result 2 (HIV-1IIIB [2]): 37.2 nM^2 %, μM^2 % or nMμM %
Synergy Volume, Result 3 (HIV-1IIIB [2]): 30.3 nM^2 %, μM^2 % or nMμM %
